Measurements as given in US12622887B2 (priority 2019, dated 2026).

What was measured:
[1] = system: αKlotho; assay: Release of soluble αKlotho in supernatant of primary tubule cell cultures (RPTEC), ELISA; assay type: cell-based; conditions: for Average Klotho value: RPTEC supernatant
Protocol: Concentrations of H2O2 equal to 0.1, 0.2, 0.5 up to 1 mM were also tested. […] The soluble aKlotho analysis was performed using the commercial test ELISA lbl code 277789 following the manufacturer's instructions. […] The soluble aKlotho analysis was performed using ELISA lbl test.

[2] = system: primary renal tubule cells; assay: MTT test, cell proliferation/viability of primary renal tubule cells; assay type: cell-based; conditions: tubule cells exposed to H2O2 0.5 mM alone

## OO [H2O2]
[1]; 6 hours exposure of primary tubule cells
  Lowest concentration able to induce a statistically significant reduction in Klotho: 0.1 mM
[1]; H2O2 6 h alone (0.1 mM), no pretreatment
  Average Klotho value: 55.42 pg/mL
[2]
  Cell viability (MTT test): significant reduction in cell viability

## C[N+](C)(C)C[C@H](O)CC(=O)[O-] [Carnitine, L-Carnitine]
[1]; pre-treatment 12 h at 5 mM, then 6 h Gentamicin sulphate 10 mM
  Average Klotho value: 6.68 pg/mL
[1]; pre-treatment 12 h at 5 mM, then 6 h Iodixanol 100 mg/ml
  Average Klotho value: 77.06 pg/mL
[1]; pretreatment 12 h at 5 mM, then 6 h H2O2 0.1 mM
  Average Klotho value: 140.25 pg/mL

## CC(=O)N(CC(O)CN(C(C)=O)c1c(I)c(C(=O)NCC(O)CO)c(I)c(C(=O)NCC(O)CO)c1I)c1c(I)c(C(=O)NCC(O)CO)c(I)c(C(=O)NCC(O)CO)c1I (centres unmarked) [Iodixanol]
[1]; Iodixanol contrast medium only, 6 hours
  Change in Klotho compared to the basal condition: drastic reduction in Klotho
[1]; Iodixanol 100 mg/ml 6 h alone
  Average Klotho value: 0 pg/mL
